# Assay results: ChEMBL document CHEMBL1125698, “Using theoretical descriptors in quantitative structure-activity relationships: some toxicological indices” (J Med Chem, 1991)
# Experiments:
# [1] = Toxicity determined using Tadpole Narcosis Test; conditions: frog
# [2] = Toxicity determined using Konemann's Industrial Pollutants Toxicity Test; conditions: fish
# [3] = Toxicity determined using Golden Orfe Fish Test; conditions: leuciscus idus
# Lithobates pipiens = assay: Inhibition of Rana pipiens muscle activity.; format: functional, frog, Muscle tissue
# [4] = The toxicity of compound was determined using Konemann's Industrial Pollutants Toxicity Test
# [5] = Toxicity determined using Microtox Test; format: ADME, Bacteria
SMILES,Log C [1],Log LC50 [3],further results
c1ccc2ccccc2c1,-4.225,–,–
Cc1cc(Cl)c(Cl)cc1Cl,–,–,Log LC50 [2]: 0.94
C=CCCC,-2.364,–,–
CCOC(=O)C(C)C,-2.3,–,–
Clc1cc(Cl)c(Cl)c(Cl)c1,–,–,Log LC50 [2]: 0.57
CC(Cl)CCl (stereo not given),–,–,Log LC50 [2]: 3.01
CCCC(=O)OCC,-2.367,–,–
CCC(=O)CC,-1.861,–,–
CCCC(C)=O,-1.785,–,–
Clc1cc(Cl)c(Cl)cc1Cl,–,–,Log LC50 [2]: 0.15
Clc1cccc(Cl)c1Cl,–,–,Log LC50 [2]: 1.11
c1ccc2c(c1)ccc1ccccc12,-5.791,–,–
CCCCOC(=O)CCCC,-3.504,–,–
CCCCC(=O)OCC,-2.716,–,–
CCCCOCCCC,–,-0.303,–
"ClC(Cl)C(Cl)Cl [1,1,2,2-TETRACHLOROETHANE]",–,–,Log LC50 [2]: 2.34
"ClCCCl [1,2-DICHLOROETHANE]",-2.374,–,–
"Clc1cc(Cl)cc(Cl)c1 [1,3,5-TRICHLOROBENZENE]",–,–,Log LC50 [2]: 1.26
CCCCCCCO [1-HEPTANOL],–,-0.163,Log MBC (Lithobates pipiens): 0.2
CCCCCCO [1-HEXANOL],–,-0.315,Log MBC (Lithobates pipiens): 0.56
CCCCCO [1-PENTANOL],–,–,Log MBC (Lithobates pipiens): 1.2
CCCCC(C)O (stereo not given) [2-HEXANOL],–,-0.359,–
CCCC(C)O (stereo not given) [2-PENTANOL],-1.861,–,–
CCC(O)CC [3-PENTANOL],–,–,Log LC50 [2]: 4.05
CCCCOC(C)=O [ACETIC ACID BUTYL ESTER],-2.374,–,–
CC(=O)OCC(C)C [ACETIC ACID ISOBUTYL ESTER],-2.33,–,–

SMILES,Log C [1],Log LC50 [3],further results
CCCCCOC(C)=O [ACETIC ACID PENTYL ESTER],-2.727,–,–
CCCOC(C)=O [ACETIC ACID PROPYL ESTER],-1.969,–,–
CC(C)=O [ACETONE],-0.924,-2.259,Log LC50 [4]: 5.04; Log MBC (Lithobates pipiens): 2.6
CC#N [ACETONITRILE],–,-2.227,–
CC(=O)c1ccccc1 [ACETOPHENONE],-2.891,–,–
CCO [ALCOHOL],-0.484,–,Log MBC (Lithobates pipiens): 2.75; Log LC50 [2]: 5.38
CCC(C)(C)O [AMYLENE HYDRATE],-1.859,-0.907,–
Nc1ccccc1 [ANILINE],–,–,Log MBC (Lithobates pipiens): 1.3
COc1ccccc1 [ANISOLE],-2.493,-0.305,–
c1ccccc1 [BENZENE],-2.905,-0.417,Log LC50 [4]: 2.91
OCc1ccccc1 [BENZYL ALCOHOL],–,–,Log MBC (Lithobates pipiens): 1.3
Oc1ccc2ccccc2c1 [BETANAPHTHOL],–,–,Log MBC (Lithobates pipiens): 0
CBr [BROMOMETHANE],-2.263,–,–
CCC(C)O (stereo not given) [BUTANOL],-1.433,-1.477,–
CCC(C)=O [BUTANONE],1.401,-1.663,–
CCCCO [BUTYL ALCOHOL],-1.463,-1.432,Log MBC (Lithobates pipiens): 1.78
CCCCCl [BUTYL CHLORIDE],–,–,Log LC50 [2]: 3.02
ClC(Cl)(Cl)Cl [CARBON TETRACHLORIDE],–,–,Log EC50 [5]: -0.22
Clc1ccccc1 [CHLOROBENZENE],–,–,Log LC50 [2]: 2.23
ClC(Cl)Cl [CHLOROFORM],-3.065,–,Log MBC (Lithobates pipiens): 1.5
O=C1CCCCC1 [CYCLOHEXANONE],–,-0.66,–
OC1CCCC1 [CYCLOPENTANOL],–,-0.97,–
O=C1CCCC1 [CYCLOPENTANONE],–,-1.359,–
CCOCC [ETHER],-1.389,-1.722,Log LC50 [4]: 4.46; Log MBC (Lithobates pipiens): 1.93
CCOC=O [ETHOXYCARBONYL GROUP],-1.111,–,–
CCOC(C)=O [ETHYL ACETATE],-1.502,–,–

SMILES,Log C [1],Log LC50 [3],further results
CCCl [ETHYL CHLORIDE],-1.655,–,–
CCOC(=O)CC [ETHYL PROPIONATE],-1.898,–,–
COC=O [FORMIC ACID METHYL ESTER],-1.075,–,–
CCCC(O)CC (stereo not given) [HEXAN-3-OL],–,-0.363,–
CC(C)CO [ISOBUTANOL],–,-1.43,–
CC(C)O [ISOPROPYL ALCOHOL],-0.977,-2.005,Log LC50 [4]: 5.07; Log MBC (Lithobates pipiens): 2.55
Cc1cccc(C)c1 [M-XYLENE],–,–,Log LC50 [2]: 2.55
Cc1cccc(O)c1 [METACRESOL],–,-0.694,–
CO [METHYL ALCOHOL],0.17,–,Log MBC (Lithobates pipiens): 3.09
ClCCl [METHYLENE CHLORIDE],–,–,Log LC50 [2]: 3.54
O=[N+]([O-])c1ccccc1 [NITROBENZENE],–,-0.263,Log MBC (Lithobates pipiens): 0.47
C[N+](=O)[O-] [NITROMETHANE],-1.08,–,–
Cc1ccccc1C [O-XYLENE],-3.44,–,Log LC50 [2]: 2.52
CCCCCCCCO [OCTANOL],-3.148,-0.594,Log MBC (Lithobates pipiens): -0.016
CCCCC [PENTANE],-2.649,–,–
Oc1ccccc1 [PHENOL],–,-0.256,Log MBC (Lithobates pipiens): 1
CCCO [PROPANOL],-1.021,-1.972,Log MBC (Lithobates pipiens): 2.4
c1ccncc1 [PYRIDINE],–,–,Log MBC (Lithobates pipiens): 1.77
c1ccc2ncccc2c1 [QUINOLINE],–,–,Log MBC (Lithobates pipiens): 0.3
CC(C)(C)O [TERT-BUTANOL],-1.429,–,–
C1CCOC1 [TETRAHYDROFURAN],–,-1.815,–
Cc1ccc(C(C)C)c(O)c1 [THYMOL],-3.574,–,Log MBC (Lithobates pipiens): -0.52
Cc1ccccc1 [TOLUENE],–,–,Log MBC (Lithobates pipiens): 1; Log LC50 [2]: 2.87
CC(Cl)(Cl)Cl [TRICHLOROETHANE],–,-0.087,Log LC50 [2]: 2.85
ClC=C(Cl)Cl [TRICHLOROETHYLENE],–,-0.293,–
